Type in all cases: functional
The test system of assay [1] is Escherichia coli. In words: Antibacterial activity against Escherichia coli JM109 harboring plasmid ptac85-vca0421.
Assay [2] in a line: Antibacterial activity against Vibrio cholerae O1 mTn-321 harboring Ser to Ile mutation at 83 position in gyrA and parC genes by 2-fold agar dilution method.
Assay [3] is described as follows: Antibacterial activity against Vibrio cholerae O1 569B harboring gyrA and parC genes by 2-fold agar dilution method. (In general: Agar dilution tests growth on a series of plates holding different concentrations.)
Assay [4] concerns Escherichia coli. In words: Antibacterial activity against Escherichia coli JM109 harboring plasmid ptac85.
Assay [5] in a line: Antibacterial activity against Vibrio cholerae O1 CIP0.25-1 harboring Ser to Ile mutation at 83 position in gyrA and parC genes by 2-fold agar dilution method.

Values after ≈ are worked out from the molar mass of the structure shown.

Regarding `CCn1cc(C(=O)O)c(=O)c2cc(F)c(N3CCNCC3)cc21` [NORFLOXACIN], the MIC is 1 µg/mL (≈ 3.13 µM) with Escherichia coli [1]; 0.125 µg/mL (≈ 0.391 µM) in assay [2]; 0.0078 µg/mL (≈ 0.0244 µM) in assay [3]; 1 µg/mL (≈ 3.13 µM) in the assay on Escherichia coli [4]; 2 µg/mL (≈ 6.26 µM) in assay [5].
In the case of `C[C@@H]1CN(c2c(F)c(N)c3c(=O)c(C(=O)O)cn(C4CC4)c3c2F)C[C@H](C)N1` [SPARFLOXACIN], the minimum inhibitory concentration (MIC) is 0.125 µg/mL (≈ 0.319 µM) against Escherichia coli [1]; 0.0625 µg/mL (≈ 0.159 µM) in assay [2]; 0.004 µg/mL (≈ 0.0102 µM) in assay [3]; 0.25 µg/mL (≈ 0.637 µM) in the assay with Escherichia coli [4]; 0.125 µg/mL (≈ 0.319 µM) in assay [5].
For the compound `O=C(O)c1cn(C2CC2)c2cc(N3CCNCC3)c(F)cc2c1=O` [CIPROFLOXACIN], the minimal inhibitory concentration (MIC) in assay [3] is 0.004 µg/mL (≈ 0.0121 µM).
Regarding `CN(C)[C@@H]1C(O)=C(C(N)=O)C(=O)[C@@]2(O)C(O)=C3C(=O)c4c(O)cccc4[C@@](C)(O)[C@H]3C[C@@H]12` [TETRACYCLINE], the minimal inhibitory concentration (MIC) against Escherichia coli [1] stood at 8 µg/mL (≈ 18 µM); in assay [3] it was 0.5 µg/mL (≈ 1.13 µM); against Escherichia coli [4], 16 µg/mL (≈ 36 µM); in assay [5] it was 4 µg/mL (≈ 9 µM).
Consider `CCn1cc(C(=O)O)c(=O)c2cc(F)c(N3CCNCC3)nc21` [ENOXACIN], for which the minimal inhibitory concentration (MIC) against Escherichia coli [1] came to 2 µg/mL (≈ 6.24 µM); in assay [2], 0.25 µg/mL (≈ 0.78 µM); in assay [3], 0.0313 µg/mL (≈ 0.0977 µM); in the assay on Escherichia coli [4], 4 µg/mL (≈ 12.5 µM); in assay [5], 2 µg/mL (≈ 6.24 µM).

As a reminder, the MIC is the lowest concentration that inhibits growth of the organism. A higher MIC goes with a need for much substance.

Values taken from ChEMBL document CHEMBL1671754, “Reduced expression of the vca0421 gene of Vibrio cholerae O1 results in innate resistance to ciprofloxacin” (2010).
